Test results: patent publication US20250017252A1, “Fatty acids for boostering ketogenic diet” (N.V. Nutricia, priority 2022, published 2025)
Entries after “also recorded” stand apart in the source; their conditions may differ.

Tests used:
Assay type in all cases: cell-based
[1] = system: mouse liver cells (Hepa1-6 cell line); assay: Ketone (β-hydroxybutyrate) production in mouse liver cells; settings: for Effect of combining with OA on βHb production vs sum of individual effects: 1 μM to 10 μM + 100 μM OA; for βHb production when combined with oleic acid vs OA alone: 1 μM to 10 μM test nutrient + 100 μM OA; for βHb production when combined with fatty acid blend (K-one) vs blend alone: 1 μM to 10 μM test nutrient + 100 μM fatty acid blend; for βHb production, provided alone: test nutrient alone at 1 μM, 5 μM and 10 μM, no OA or fat blend, 6 hours; for Effect of combining with fatty acid blend on βHb production vs sum of individual effects: with 100 μM K-one fatty acid blend; for Ketone production in the absence of a ketogenic fat blend: 5 μM each, alone or in combination
Description: An assay to measure ketone production in mouse liver cells (Hepa1-6 cell line) was used wherein cells were first grown to a monolayer (growth phase), then exposed to starvation to deplete cellular lipid stores and subsequently brought into a ketogenic phase wherein cells were cultured in presence of oleic acid or a ketogenic diet fat blend with or without the presence of one of C2 fatty acid, C4 fatty acid, C6 fatty acid, citric acid and nicotinamide riboside. The ketone body production was subsequently determined by measurement of beta-hydroxybutyrate in the cell culture medium according to the details set out below:
Starvation phase: At the end of the growth phase the cells formed a monolayer. The medium was exchanged for DMEM containing 1 mM glucose and antibiotics (1% penicillin & streptomycin) but no FBS. The medium was further supplemented with L-carnitine (a required co-factor for the uptake of fatty acids into the mitochondria, where fatty acids are turned into ketones). The cells were incubated in this medium for 24 hours. During this time, the cells were vastly deprived of glucose, lipids and hormones contained in FBS, forcing them to consume and empty their lipid stores. […] Moreover, the starvation phase is thought to induce specific metabolic changes that maximize the production of ketones.
Ketogenic phase: At the end of the starvation phase, the medium was exchanged for Krebs-Henseleit buffer (KHB) supplemented with the L-carnitine and the test nutrients (table 1, single fatty acids C2, C4, C6 and citrate, nicotinamide riboside in combination with oleic acid fatty acid blend).
The fatty acid blend has a similar fatty acid composition as the one used in a ketogenic diet (K-one). The content of every fatty acid in the blend is given as the molar ratio to Oleic acid (OA), whose molar content is set to 1. Dilutions of this blend were used to determine the dose response curve in FIGS. 1B and 1D. C2 and C4 are not included in the blend.
KHB is composed of salts and bicarbonate as a chemical buffer to maintain the osmotic pressure and acidity (pH) at physiological levels. Medium and long chain fatty acids are coupled to bovine serum albumin prior to the assay to make them soluble in KHB and allow their efficient uptake by the cells. The coupling is physiological since in humans, medium and long chain fatty acids are normally coupled to albumin for transport in the blood circulation. Short chain fatty acids (C2, C4) were not coupled to albumin in the assay as they are water-soluble and circulate freely in humans. The cells were incubated for 6 hours at 37° C. During this time they produce ketones from the test nutrients with little to no interference from other nutrients and secrete β-hydroxybutyrate (β) into the medium.
β-Hb measurements: At the end of the ketogenic phase, the whole medium was collected and dried by vacuum centrifugation for 20 hours at 21° C. The dry pellet was resuspended in a small volume of assay buffer to yield a 10-20-fold higher β-Hb concentration than in the medium. The samples were deproteinized using spin columns to measure the free unbound fraction of β-Hb. […] The Fluorescence was measured on a fluorescence microplate reader and is directly proportional to the β-Hb concentration in the sample within a range of 0.1 μM to 50 μM β-Hb.

[2] = system: NAD+ depleted mouse liver cells (Hepa1-6 cells); assay: NAD+ replenishment of NAD+ depleted mouse liver cells under ketogenic diet-like conditions
Description: A ketogenic diet treatment leads to great consumption of NAD+ and other metabolically relevant NAD+ derivatives such as NADP+ creating a state of NAD+ exhaustion. Therefore, it was hypothesized that nicotinamide riboside (NR) may replenish NAD+ and thus sustains ketone production more effectively in liver cells than other NAD+ precursors including nicotinamide (NAM), nicotinic acid (NA), Niacin (defined as the combination of NA and NAM) or the amino acid tryptophan (Trp). While NA and NAM have been commonly referred to as vitamin B3, NR is a recently discovered and naturally occurring vitamin B3 member. An assay was developed to measure NAD+ replenishment of NAD+ depleted mouse liver cells (Hepa1-6 cells) by NAD+ precursors under ketogenic diet-like conditions. In this assay, mouse liver cells were starved of glucose and depleted of NAD+ through incubation in a very low glucose (1 mM) medium free of vitamin B3, tryptophan (Trp) and FBS and supplemented with 10 nM of an NAD+ depleting drug called FK866. Thereafter, the cells were fed with NR or NAM or Niacin (combination of NAM and NA in a 1:1 molar ratio) or Trp to replenish NAD+. At the end of the supplementation phase, the cells were scraped and extracted using the NAD+ extraction buffer of the EnzyChrom™ NAD/NADH Assay Kit from BioAssay Systems. The NAD+ content of the cells was determined with the same kit following the manufacturer's manual. The NAD+ measurement is based on a lactate dehydrogenase reaction, in which NAD+ is reduced to NADH, which in turn reduces a formazan (MTT) reagent. The intensity of the reduced product colour, measured at 565 nm, is proportional to the NAD+ concentration in the sample. This assay is highly specific for NAD+ and has minimal interference (<1%) by NADP+ or NADPH.

[3] = system: NAD+ depleted mouse liver cells; assay: Ketone production of NAD+ depleted liver cells after NR replenishment; settings: NR 10 μM, 150 μM and 1000 μM
Description: To measure the impact of replenishing NAD+ in liver cells with NR on ketone production, mouse liver cells were nutrient-deprived in medium containing low (1 mM) glucose, no fetal bovine serum, and no NAD+ precursors in the form of vitamin B3 (Niacin, NA, NAM) or Trp, but supplemented with L-carnitine.
Concomitantly the cells were treated with FK866. These conditions created ketogenic diet like nutrient conditions and depleted the cells of NAD+ After 18 hours of incubation, FK866 was removed from the medium and a concentration range of NR was added for the replenishment of NAD+. After 24 hours, the cells were switched to Krebs-Henseleit buffer (KHB) containing L-carnitine and a concentration range (1 μM to 100 μM) of oleic acid, a long chain fatty acid, for 6 hours to induce and measure the production and secretion of b-hydroxybutyrate (βHB) into the medium.

CC(=O)O [C2, ethanoic acid]
Effect of combining with OA on βHb production vs sum of individual effects [1]: more than additive | βHb production when combined with oleic acid vs OA alone [1]: more βHb than 100 μM OA alone | βHb production when combined with fatty acid blend (K-one) vs blend alone [1]: slightly greater production of βHb | βHb production, provided alone [1]: virtually no bHB; also recorded: no βHb | Effect of combining with fatty acid blend on βHb production vs sum of individual effects [1]: more than additive

CCCC(=O)O [C4, butyric acid]
Effect of combining with OA on βHb production vs sum of individual effects [1]: more than additive | βHb production when combined with oleic acid vs OA alone [1]: more βHb than providing 100 μM OA alone | βHb production when combined with fatty acid blend (K-one) vs blend alone [1]: more βHb than providing the 100 μM fatty acid blend alone | Ketone production in the absence of a ketogenic fat blend [1]: hardly any ketones | Production of ketones from fatty acid blend concentration range ([1]; fixed 10 μM C4 + 1 μM to 100 μM fatty acid blend vs blend without C4): increasingly enhanced the production of ketones | βHb production, provided alone [1]: hardly yielded any βHb; also recorded: no βHb | Effect of combining with fatty acid blend on βHb production vs sum of individual effects [1]: more than additive

CCCCCC(=O)O [C6, caproic acid]
βHb production when combined with oleic acid vs OA alone [1]: potentiates the production of ketones | βHb production when combined with fatty acid blend (K-one) vs blend alone [1]: potentiates the production of ketones | Ketone production in the absence of a ketogenic fat blend [1]: hardly any ketones | Concentration above which the fatty acid starts to be turned into βHb (substrate) ([1]; dose-response curve 1 μM to 100 μM, alone): above 10 μM | Effect of combining with fatty acid blend on βHb production vs sum of individual effects [1]: more than additive

O=C(/C=C/c1cccnc1)NCCCCC1CCN(C(=O)c2ccccc2)CC1 [FK866, reference compound]
Depletion of NAD+ relative to baseline NAD+ content of untreated liver cells ([2]; 10 nM FK866): ~70%

NC(=O)c1ccc[n+]([C@@H]2O[C@H](CO)[C@@H](O)[C@H]2O)c1 [NR, nicotinamide riboside]
NAD+ content replenishment ([2]; NAD+ depleted cells, within 24 hours of treatment): dose-dependently replenishes NAD+ content to and above this baseline | Increase of NAD+ content vs equimolar NAM or Niacin ([2]; high concentrations of 1 mM): significantly greater extent than equimolar amounts of NAM or Niacin | Increase of NAD+ content vs equimolar Niacin ([2]; lower concentrations below 150 μM): greater extent than equimolar amounts of Niacin | Top-level production of ketones ([3]; NAD+ depleted cells, oleic acid 1 μM to 100 μM, 6 hours): increased the top-level production of ketones | NAD+ content ([3]; ketogenic diet like nutrient conditions): increased

CCCCCCCC/C=C\CCCCCCCC(=O)O [OA, oleic acid, reference compound]
Concentration at which top-level production of ketones is achieved ([1]; dose-response curve, substrate alone): 100 µM

O=C(O)CC(O)(CC(=O)O)C(=O)O [citrate, citric acid]
Increase of ketone production from the fat blend ([1]; citrate 200 μM to 1000 μM + 100 μM K-one fat blend): 10-20% | Ketone production, citrate alone ([1]; citrate alone, no fat blend): no ketones | Effect of combining with fatty acid blend on βHb production vs sum of individual effects [1]: clearly greater than the sum
